# Measured values as given in PubChem BioAssay (NCI).
#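 These data come from cells grown in 96-well plates and exposed to compound for 48 hours at five concentrations. GI50 = concentration required for 50% inhibition of growth. Definition used: TGI = concentration required for complete inhibition of growth.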
# Experiments:
# Experiment in all cases: growth of human tumour cells (NCI), 48 h
# SK-MEL-28 melanoma = tested on: SK-MEL-28 melanoma
# SW-620 colon = tested on: SW-620 colon
# MALME-3M melanoma = tested on: MALME-3M melanoma
# DU-145 prostate = tested on: DU-145 prostate
# LOX IMVI melanoma = tested on: LOX IMVI melanoma
# HT29 colon = tested on: HT29 colon
# SF-539 CNS = tested on: SF-539 CNS
# IGROV1 ovarian = tested on: IGROV1 ovarian
# SK-MEL-5 melanoma = tested on: SK-MEL-5 melanoma
# OVCAR-5 ovarian = tested on: OVCAR-5 ovarian
# HCT-15 colon = tested on: HCT-15 colon
# NCI-H226 lung = tested on: NCI-H226 lung
# UACC-62 melanoma = tested on: UACC-62 melanoma
# MDA-MB-231 breast = tested on: MDA-MB-231 breast
# MDA-MB-468 breast = tested on: MDA-MB-468 breast
# BT-549 breast = tested on: BT-549 breast
# OVCAR-4 ovarian = tested on: OVCAR-4 ovarian
# PC-3 prostate = tested on: PC-3 prostate
# 786-0 renal = tested on: 786-0 renal
# MDA-MB-435 = tested on: MDA-MB-435
# COLO 205 colon = tested on: COLO 205 colon
# HCC-2998 colon = tested on: HCC-2998 colon
# OVCAR-8 ovarian = tested on: OVCAR-8 ovarian
# CCRF-CEM leukemia = tested on: CCRF-CEM leukemia
# CAKI-1 renal = tested on: CAKI-1 renal
# UO-31 renal = tested on: UO-31 renal
# HOP-92 NSCLC = tested on: HOP-92 NSCLC
# SR leukemia = tested on: SR leukemia
# HL-60(TB) leukemia = tested on: HL-60(TB) leukemia
# UACC-257 melanoma = tested on: UACC-257 melanoma
# TK-10 renal = tested on: TK-10 renal
# OVCAR-3 ovarian = tested on: OVCAR-3 ovarian
# M14 melanoma = tested on: M14 melanoma
# ACHN renal = tested on: ACHN renal
# NCI-H460 lung = tested on: NCI-H460 lung
# T-47D breast = tested on: T-47D breast
# SN12C renal = tested on: SN12C renal
# KM12 colon = tested on: KM12 colon
# SK-OV-3 ovarian = tested on: SK-OV-3 ovarian
# RPMI-8226 leukemia = tested on: RPMI-8226 leukemia
# NCI-H23 lung = tested on: NCI-H23 lung
# SK-MEL-2 melanoma = tested on: SK-MEL-2 melanoma
# HS 578T breast = tested on: HS 578T breast
# A498 renal = tested on: A498 renal
# A549 NSCLC = tested on: A549 NSCLC
# NCI-H522 lung = tested on: NCI-H522 lung
# SNB-19 CNS = tested on: SNB-19 CNS
# HOP-62 NSCLC = tested on: HOP-62 NSCLC
# U251 CNS = tested on: U251 CNS
# NCI/ADR-RES ovarian = tested on: NCI/ADR-RES ovarian
# EKVX NSCLC = tested on: EKVX NSCLC
# K-562 leukemia = tested on: K-562 leukemia
# SNB-75 CNS = tested on: SNB-75 CNS
# MCF7 breast = tested on: MCF7 breast
# HCT-116 colon = tested on: HCT-116 colon
# MOLT-4 leukemia = tested on: MOLT-4 leukemia
# RXF 393 renal = tested on: RXF 393 renal
# SF-295 CNS = tested on: SF-295 CNS
# SF-268 CNS = tested on: SF-268 CNS
smiles,measurement,setting,value
CN(C)CCCNC(=S)Nc1ccc(/C=C/c2ccc(Cl)cc2)cc1,GI50,SK-MEL-28 melanoma,1.79 µM
same,TGI,SK-MEL-28 melanoma,3.2 µM
same,GI50,SW-620 colon,1.67 µM
same,TGI,SW-620 colon,3.14 µM
same,GI50,MALME-3M melanoma,1.75 µM
same,TGI,MALME-3M melanoma,3.14 µM
same,GI50,DU-145 prostate,1.75 µM
same,TGI,DU-145 prostate,3.33 µM
same,GI50,LOX IMVI melanoma,1.64 µM
same,TGI,LOX IMVI melanoma,3.09 µM
same,GI50,HT29 colon,2.14 µM
same,TGI,HT29 colon,4.72 µM
same,GI50,SF-539 CNS,1.68 µM
same,TGI,SF-539 CNS,3.05 µM
same,GI50,IGROV1 ovarian,1.78 µM
same,TGI,IGROV1 ovarian,3.31 µM
same,GI50,SK-MEL-5 melanoma,1.72 µM
same,TGI,SK-MEL-5 melanoma,3.09 µM
same,GI50,OVCAR-5 ovarian,1.61 µM
same,TGI,OVCAR-5 ovarian,3.09 µM
same,GI50,HCT-15 colon,1.53 µM
same,TGI,HCT-15 colon,3.03 µM
same,GI50,NCI-H226 lung,8.41 µM
same,TGI,NCI-H226 lung,38.2 µM
same,GI50,UACC-62 melanoma,1.75 µM
same,TGI,UACC-62 melanoma,3.17 µM
same,GI50,MDA-MB-231 breast,1.62 µM
same,TGI,MDA-MB-231 breast,3.03 µM
same,GI50,MDA-MB-468 breast,1.64 µM
same,TGI,MDA-MB-468 breast,3.07 µM
same,GI50,BT-549 breast,2.89 µM
same,TGI,BT-549 breast,8.87 µM
same,GI50,OVCAR-4 ovarian,1.92 µM
same,TGI,OVCAR-4 ovarian,4.35 µM
same,GI50,PC-3 prostate,1.64 µM
same,TGI,PC-3 prostate,3.24 µM
same,GI50,786-0 renal,1.62 µM
same,TGI,786-0 renal,3.36 µM
same,GI50,MDA-MB-435,1.58 µM
same,TGI,MDA-MB-435,3.06 µM
same,GI50,COLO 205 colon,1.88 µM
same,TGI,COLO 205 colon,3.64 µM
same,GI50,HCC-2998 colon,1.64 µM
same,TGI,HCC-2998 colon,3.14 µM
same,GI50,OVCAR-8 ovarian,1.98 µM
same,TGI,OVCAR-8 ovarian,4.1 µM
same,GI50,CCRF-CEM leukemia,1.63 µM
same,TGI,CCRF-CEM leukemia,3.43 µM
same,GI50,CAKI-1 renal,1.54 µM
same,TGI,CAKI-1 renal,2.96 µM
same,GI50,UO-31 renal,1.58 µM
same,TGI,UO-31 renal,2.94 µM
same,GI50,HOP-92 NSCLC,1.35 µM
same,TGI,HOP-92 NSCLC,2.99 µM
same,GI50,SR leukemia,1.94 µM
same,TGI,SR leukemia,5.1 µM
same,GI50,HL-60(TB) leukemia,1.67 µM
same,TGI,HL-60(TB) leukemia,3.93 µM
same,GI50,UACC-257 melanoma,1.64 µM
same,TGI,UACC-257 melanoma,3.24 µM
same,GI50,TK-10 renal,1.87 µM
same,TGI,TK-10 renal,3.56 µM
same,GI50,OVCAR-3 ovarian,1.44 µM
same,TGI,OVCAR-3 ovarian,3.11 µM
same,GI50,M14 melanoma,1.77 µM
same,TGI,M14 melanoma,3.62 µM
same,GI50,ACHN renal,1.78 µM
same,TGI,ACHN renal,3.19 µM
same,GI50,NCI-H460 lung,1.54 µM
same,TGI,NCI-H460 lung,3.01 µM
same,GI50,T-47D breast,1.88 µM
same,TGI,T-47D breast,4.1 µM
same,GI50,SN12C renal,1.68 µM
same,TGI,SN12C renal,3.13 µM
same,GI50,KM12 colon,1.82 µM
same,TGI,KM12 colon,3.4 µM
same,GI50,SK-OV-3 ovarian,2.03 µM
same,TGI,SK-OV-3 ovarian,4.16 µM
same,GI50,RPMI-8226 leukemia,2.55 µM
same,TGI,RPMI-8226 leukemia,7.33 µM
same,GI50,NCI-H23 lung,2.02 µM
same,TGI,NCI-H23 lung,4.44 µM
same,GI50,SK-MEL-2 melanoma,1.87 µM
same,TGI,SK-MEL-2 melanoma,3.57 µM
same,GI50,HS 578T breast,1.86 µM
same,TGI,HS 578T breast,4.52 µM
CN(C)c1nc(NCCNS(=O)(=O)c2ccc(C(=O)/C=C/c3ccc(F)cc3)cc2)nc(Nc2ccc(F)cc2)n1,GI50,SK-MEL-28 melanoma,3.6 µM
same,TGI,SK-MEL-28 melanoma,13.7 µM
same,GI50,SW-620 colon,1.9 µM
same,TGI,SW-620 colon,4.02 µM
same,GI50,MALME-3M melanoma,3.42 µM
same,TGI,MALME-3M melanoma,12.4 µM
same,GI50,DU-145 prostate,3.94 µM
same,TGI,DU-145 prostate,14 µM
same,GI50,LOX IMVI melanoma,1.66 µM
same,TGI,LOX IMVI melanoma,3.07 µM
same,GI50,HT29 colon,1.9 µM
same,TGI,HT29 colon,3.65 µM
same,GI50,SF-539 CNS,2.52 µM
same,TGI,SF-539 CNS,6.78 µM
same,GI50,IGROV1 ovarian,4.27 µM
same,TGI,IGROV1 ovarian,15 µM
same,GI50,A498 renal,6.21 µM
same,TGI,A498 renal,19.3 µM
same,GI50,SK-MEL-5 melanoma,2.91 µM
same,TGI,SK-MEL-5 melanoma,11.1 µM
same,GI50,A549 NSCLC,3.41 µM
same,TGI,A549 NSCLC,14.2 µM
same,GI50,OVCAR-5 ovarian,3.39 µM
same,TGI,OVCAR-5 ovarian,15 µM
same,GI50,NCI-H522 lung,2.81 µM
same,TGI,NCI-H522 lung,8.9 µM
same,GI50,HCT-15 colon,1.99 µM
same,TGI,HCT-15 colon,4.28 µM
same,GI50,NCI-H226 lung,3.41 µM
same,TGI,NCI-H226 lung,16.4 µM
same,GI50,SNB-19 CNS,4.58 µM
same,TGI,SNB-19 CNS,16.8 µM
same,GI50,UACC-62 melanoma,3.57 µM
same,TGI,UACC-62 melanoma,14.6 µM
same,GI50,HOP-62 NSCLC,8.39 µM
same,TGI,HOP-62 NSCLC,23.6 µM
same,GI50,MDA-MB-231 breast,2.64 µM
same,TGI,MDA-MB-231 breast,8.38 µM
same,GI50,MDA-MB-468 breast,2.55 µM
same,TGI,MDA-MB-468 breast,8.09 µM
same,GI50,BT-549 breast,4.87 µM
same,TGI,BT-549 breast,17.1 µM
same,GI50,OVCAR-4 ovarian,3.68 µM
same,TGI,OVCAR-4 ovarian,15.6 µM
same,GI50,U251 CNS,1.99 µM
same,TGI,U251 CNS,4.41 µM
same,GI50,PC-3 prostate,2.76 µM
same,TGI,PC-3 prostate,10.6 µM
same,GI50,786-0 renal,2.56 µM
same,TGI,786-0 renal,6.3 µM
same,GI50,MDA-MB-435,2.32 µM
same,TGI,MDA-MB-435,5.69 µM
same,GI50,COLO 205 colon,2.38 µM
same,TGI,COLO 205 colon,6.56 µM
same,GI50,HCC-2998 colon,1.8 µM
same,TGI,HCC-2998 colon,3.45 µM
same,GI50,NCI/ADR-RES ovarian,3.25 µM
same,TGI,NCI/ADR-RES ovarian,11.6 µM
same,GI50,OVCAR-8 ovarian,3.42 µM
same,TGI,OVCAR-8 ovarian,13.9 µM
same,GI50,EKVX NSCLC,2.95 µM
same,TGI,EKVX NSCLC,10.9 µM
same,GI50,CCRF-CEM leukemia,3.42 µM
same,TGI,CCRF-CEM leukemia,> 100 µM
same,GI50,CAKI-1 renal,3.01 µM
same,TGI,CAKI-1 renal,12.7 µM
same,GI50,UO-31 renal,2.9 µM
same,TGI,UO-31 renal,11.9 µM
same,GI50,HOP-92 NSCLC,2.49 µM
same,TGI,HOP-92 NSCLC,6.51 µM
same,GI50,K-562 leukemia,2.42 µM
same,TGI,K-562 leukemia,6.8 µM
same,GI50,HL-60(TB) leukemia,2.04 µM
same,TGI,HL-60(TB) leukemia,6.34 µM
same,GI50,SNB-75 CNS,2.88 µM
same,TGI,SNB-75 CNS,16 µM
same,GI50,UACC-257 melanoma,3.61 µM
same,TGI,UACC-257 melanoma,15.2 µM
same,GI50,TK-10 renal,4.62 µM
same,TGI,TK-10 renal,16.6 µM
same,GI50,OVCAR-3 ovarian,1.74 µM
same,TGI,OVCAR-3 ovarian,3.24 µM
same,GI50,MCF7 breast,1.8 µM
same,TGI,MCF7 breast,3.46 µM
same,GI50,HCT-116 colon,1.6 µM
same,TGI,HCT-116 colon,3.01 µM
same,GI50,M14 melanoma,2.6 µM
same,TGI,M14 melanoma,8.29 µM
same,GI50,ACHN renal,3.13 µM
same,TGI,ACHN renal,10.9 µM
same,GI50,MOLT-4 leukemia,2.5 µM
same,TGI,MOLT-4 leukemia,6.5 µM
same,GI50,NCI-H460 lung,2.45 µM
same,TGI,NCI-H460 lung,6.92 µM
same,GI50,RXF 393 renal,2.26 µM
same,TGI,RXF 393 renal,7.51 µM
same,GI50,T-47D breast,3.02 µM
same,TGI,T-47D breast,11.7 µM
same,GI50,SN12C renal,1.7 µM
same,TGI,SN12C renal,3.36 µM
same,GI50,KM12 colon,2 µM
same,TGI,KM12 colon,4.41 µM
same,GI50,SF-295 CNS,3.4 µM
same,TGI,SF-295 CNS,13 µM
same,GI50,SK-OV-3 ovarian,8.23 µM
same,TGI,SK-OV-3 ovarian,21.6 µM
same,GI50,RPMI-8226 leukemia,2.42 µM
same,TGI,RPMI-8226 leukemia,6.92 µM
same,GI50,NCI-H23 lung,4.17 µM
same,TGI,NCI-H23 lung,15.6 µM
same,GI50,SK-MEL-2 melanoma,2.77 µM
same,TGI,SK-MEL-2 melanoma,8.31 µM
same,GI50,HS 578T breast,6.3 µM
same,TGI,HS 578T breast,71.5 µM
same,GI50,SF-268 CNS,3.89 µM
same,TGI,SF-268 CNS,16.4 µM
